Relative viability data for one cell line are collected here from the supplement of paper PMC10307832.

Common to all, as to experiment: relative viability (nuclei count vs DMSO), 5 days (fraction); higher = more cells survive
Compound in test [1]: NCC(=O)Nc1ccc(-n2nc(C(F)(F)F)cc2-c2ccc3c(ccc4ccccc43)c2)cc1 + CC(C)C[C@H](NC(=O)[C@H](Cc1ccccc1)NC(=O)c1cnccn1)B(O)O [Bortezomib] (partner 0.002 µM)
The method in brief: (§1)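 Lung cancer cell lines in 1536-well plates got either a single drug or a fixed anchor-drug dose together with five library-drug doses (not always all listed) in √10 steps, by pin tool, on the day after seeding. Nuclei were counted after 5 days, and relative viability is the treated-to-vehicle ratio of nuclei counts. Values are medians of duplicate plates.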

Compound in test [2]: NCC(=O)Nc1ccc(-n2nc(C(F)(F)F)cc2-c2ccc3c(ccc4ccccc43)c2)cc1 + Cc1cc(Nc2cc(N3CCN(C)CC3)nc(Sc3ccc(NC(=O)C4CC4)cc3)n2)n[nH]1 [Tozasertib] (partner 0.1 µM)
The essentials:
as §1

Compound in test [3]: NCC(=O)Nc1ccc(-n2nc(C(F)(F)F)cc2-c2ccc3c(ccc4ccccc43)c2)cc1 + Cc1nc(Nc2ncc(C(=O)Nc3c(C)cccc3Cl)s2)cc(N2CCN(CCO)CC2)n1 [Dasatinib] (partner 0.075 µM)
The method in brief:
as §1

Compound in test [4]: NCC(=O)Nc1ccc(-n2nc(C(F)(F)F)cc2-c2ccc3c(ccc4ccccc43)c2)cc1 + O=C(c1cc(Cc2n[nH]c(=O)c3ccccc23)ccc1F)N1CCN(C(=O)C2CC2)CC1 [Olaparib] (partner 8 µM)
The essentials:
as §1

Take UMC-11: the relative viability worked out at 0.831 in test [1] (first compound 0.02 µM); 0.762 in test [1] (first compound 0.06325 µM); 0.693 in test [1] (first compound 0.2 µM); 0.658 in test [1] (first compound 0.6325 µM); 0.674 in test [1] (first compound 2 µM); 0.191 in test [2] (first compound 0.02 µM). The relative viability in test [2] (first compound 0.06325 µM) was determined as 0.21; in test [2] (first compound 0.2 µM) it was 0.218; in test [2] (first compound 0.6325 µM), 0.19; in test [2] (first compound 2 µM), 0.183; in test [3] (first compound 0.02 µM) it was 0.426; in test [3] (first compound 0.06325 µM), 0.416. Also, the relative viability was 0.466 in test [3] (first compound 0.2 µM); 0.432 in test [3] (first compound 0.6325 µM); 0.42 in test [3] (first compound 2 µM); 0.307 in test [4] (first compound 0.02 µM); 0.355 in test [4] (first compound 0.06325 µM); 0.537 in test [4] (first compound 0.2 µM). Moreover, the relative viability is 0.354 in test [4] (first compound 0.6325 µM) and 0.377 in test [4] (first compound 2 µM).
